Measured values as given in patent publication US20170049717A1, “DRUG FOR TREATMENT OF TINNITUS PATIENTS” (KYORIN PHARMACEUTICAL CO., LTD., priority 2014, published 2017).

Experiments:
[1] = system: patients with tinnitus associated with sudden hearing loss; experiment: 24-week, placebo controlled, randomized, double-blind comparative trial; TRSw score; type: in vivo, human; details: for Change in TRSw score, Neramexane: least mean squares (MMRM)
Experimental: Film coated tablets comprising 12.5 mg neramexane mesylate were produced by the method disclosed in International Patent Publication No. WO2009/033649.
The efficacy of neramexane mesylate on patients with tinnitus associated with sudden hearing loss was evaluated in a 24-week, placebo controlled, randomized, double-blind comparative trial.
The film coated tablets comprising 12.5 mg neramexane mesylate or placebo tablets were administered for 24 weeks to patients having tinnitus. The dosage was started from 12.5 mg/day, and gradually increasing the dose to 50 mg/day over 4 weeks, and maintaining the same dose thereafter.
The therapeutic effect of neramexane mesylate for the patients was evaluated using the TRSw score. Also, the state of anxiety or depression of the patients was evaluated using the HADS score. Statistical analysis was performed using a mixed-effect model repeated measure (MMRM) taking into consideration the covariance structure of error for the patient, with the change in TRSw score from before administration of neramexane mesylate tablets or placebo tablets (0 weeks) to each evaluation time point as the response variable, and with the drug-administered group, evaluation time point, interaction between drug-administered group and evaluation time point, 0-week TRSw score, gender and body weight as […]. The numerical values in the table represent least mean squares for the change in TRSw score at 16 weeks after administration and 24 weeks after administration. A change in score of less than 0 indicates a higher therapeutic effect.

[2] = biological target: α9/α10 nicotinic acetylcholine receptors (Rattus norvegicus, UniProt P43144+Q9JLB5); details: Plazas, et al., Eur J Pharmacol., 2007; cited from earlier work
5-HT3 receptors = biological target: T1, 5-HT3 receptors (Homo sapiens, UniProt P46098); details: cited from earlier work
T1 sequence (P46098 24-478): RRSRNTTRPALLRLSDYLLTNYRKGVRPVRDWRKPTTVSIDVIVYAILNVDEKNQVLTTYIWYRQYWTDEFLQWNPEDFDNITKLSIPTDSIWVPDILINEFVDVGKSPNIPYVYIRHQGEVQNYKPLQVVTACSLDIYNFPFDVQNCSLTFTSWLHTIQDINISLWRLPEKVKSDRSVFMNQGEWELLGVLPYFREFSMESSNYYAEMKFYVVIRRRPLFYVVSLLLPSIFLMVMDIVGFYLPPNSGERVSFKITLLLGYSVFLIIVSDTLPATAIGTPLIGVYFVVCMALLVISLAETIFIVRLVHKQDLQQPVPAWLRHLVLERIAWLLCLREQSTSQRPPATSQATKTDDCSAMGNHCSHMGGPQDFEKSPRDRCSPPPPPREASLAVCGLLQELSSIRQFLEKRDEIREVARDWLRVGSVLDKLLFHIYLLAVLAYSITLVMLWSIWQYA

[3] = sudden hearing loss, together with HADS (anxiety) of >10
[4] = sudden hearing loss, together with HADS (depression) of >10
[5] = sudden hearing loss, together with morbidity period of 48 months or longer
[6] = sudden hearing loss, together with suffering period of less than 6 months

Chain of α9/α10 nicotinic acetylcholine receptors (P43144 26-479): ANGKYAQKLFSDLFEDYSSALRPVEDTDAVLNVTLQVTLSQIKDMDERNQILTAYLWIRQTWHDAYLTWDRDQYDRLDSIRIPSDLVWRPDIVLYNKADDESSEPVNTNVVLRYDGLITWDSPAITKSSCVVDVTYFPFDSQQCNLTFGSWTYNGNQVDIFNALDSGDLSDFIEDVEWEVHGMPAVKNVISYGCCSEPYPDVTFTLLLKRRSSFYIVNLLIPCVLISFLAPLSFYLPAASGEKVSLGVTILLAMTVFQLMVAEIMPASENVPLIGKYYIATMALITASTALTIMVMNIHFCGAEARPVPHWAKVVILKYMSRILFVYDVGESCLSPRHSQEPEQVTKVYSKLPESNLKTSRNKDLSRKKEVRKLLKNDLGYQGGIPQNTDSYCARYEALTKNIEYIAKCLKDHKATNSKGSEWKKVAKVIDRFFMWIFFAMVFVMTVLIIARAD
Chain of α9/α10 nicotinic acetylcholine receptors (Q9JLB5 25-447): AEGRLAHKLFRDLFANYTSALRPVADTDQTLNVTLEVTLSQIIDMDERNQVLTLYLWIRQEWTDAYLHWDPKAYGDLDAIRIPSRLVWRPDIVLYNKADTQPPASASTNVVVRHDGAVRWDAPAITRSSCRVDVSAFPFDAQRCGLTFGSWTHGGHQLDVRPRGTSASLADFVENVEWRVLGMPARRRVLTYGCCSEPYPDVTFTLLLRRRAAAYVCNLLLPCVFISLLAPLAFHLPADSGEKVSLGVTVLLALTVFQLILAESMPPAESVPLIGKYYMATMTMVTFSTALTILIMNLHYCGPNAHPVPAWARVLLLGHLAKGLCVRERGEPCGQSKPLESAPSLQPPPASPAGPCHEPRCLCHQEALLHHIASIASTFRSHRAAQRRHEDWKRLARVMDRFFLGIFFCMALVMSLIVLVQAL

With `CC1(C)CC(C)(C)CC(C)(N)C1` [Neramexane, 1-amino-1,3,3,5,5-pentamethylcyclohexane] the “Change in TRSw score, Neramexane − placebo” value (“Change … Neramexane − placebo” for short) ([1]; Tinnitus associated with sudden hearing loss) was −1.8, the therapeutic effect ([1]; group with a depression value of greater than 10 according to HADS) was “unexpectedly excellent therapeutic effect” and the therapeutic effect ([1]; group with a morbidity period of 48 months or longer) was “unexpectedly excellent therapeutic effect”. The therapeutic effect ([1]; group with a suffering period of shorter than 6 months) was “unexpectedly excellent therapeutic effect”, the therapeutic effect ([1]; group with an anxiety value of greater than 10 according to HADS) was “unexpectedly excellent therapeutic effect” and the “Change in TRSw score, Neramexane” value ([1]; change from 0 weeks, up to 50 mg/day, Tinnitus associated with sudden hearing loss) was −2.3. The “Change in TRSw score, Neramexane” value [1, 3] was −2.4, the “Change in TRSw score, Neramexane” value [1, 4] was −3.1 and the “Change in TRSw score, Neramexane” value [1, 5] was −4.0. For the same compound, the “Change in TRSw score, Neramexane” value [1, 6] was −3.7, the “therapeutic effect compared to placebo” value ([1]; patients affected by tinnitus associated with sudden hearing loss) was “clear therapeutic effect” and the “Change … Neramexane − placebo” value [1, 3] was −3.7. For the same compound, the “Change … Neramexane − placebo” value [1, 4] was −3.7, the “Change … Neramexane − placebo” value [1, 5] was −4.2 and the “Change … Neramexane − placebo” value [1, 6] was −3.8. For the same compound, the “inhibiting activity on α9/α10 nicotinic acetylcholine receptors” value [2] was “exhibits inhibiting activity” and the “inhibiting activity on 5-HT3 receptors” value (5-HT3 receptors) was “exhibits inhibiting activity”.
